Data on 13 molecules can be found in patent US8129371B2, “Thienopyrimidine and pyrazolopyrimidine compounds and their use as mTOR kinase and PI3 kinase inhibitors” (Wyeth LLC, priority 2007, dated 2012).

In test [1] the target is T1, Human mTOR (FLAG-TOR) (Homo sapiens, UniProt P42345).
T1 construct: FLAG
Kind of test: Human mTOR kinase assay with purified enzyme, DELFIA format. Type of test: biochemical. The gist of the method: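 DELFIA readout: Eu-anti-P(T389)-S6K antibody (40 ng/mL, 1 h) on captured His6-S6K from the stopped reaction. Kinase step used purified FLAG-tagged human mTOR with test compound in HEPES (pH 7.4)/MnCl2/DTT buffer, 2 h at room temperature (linear 1–6 h), terminated by EDTA/EGTA.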

Test [2] has as its target T2, PI3K (Homo sapiens, UniProt P42336).
T2 construct: PI3 Kinase α IC50; other: PI3 Kinase α; other: PI3 Kinase α isoform, fluorescence polarization
In words: Fluorescence polarization assay for PI3K. Format: biochemical. Conditions: PI3 Kinase α; read-out: PI3 Kinase α IC50. The gist of the method: (§1)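 Fluorescence-polarization competition readout: after 30–60 min of PIP2/ATP turnover in 1% DMSO, a stop mix with GST-GRP (70 nM) and red probe (10 nM) was added.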

The target of test [3] is T3, PI3K (Homo sapiens, UniProt P48736).
T3 construct: PI3 Kinase γ IC50; other: PI3 Kinase γ; other: PI3 Kinase γ isoform, fluorescence polarization
T3 sequence (P48736 whole entry, canonical isoform): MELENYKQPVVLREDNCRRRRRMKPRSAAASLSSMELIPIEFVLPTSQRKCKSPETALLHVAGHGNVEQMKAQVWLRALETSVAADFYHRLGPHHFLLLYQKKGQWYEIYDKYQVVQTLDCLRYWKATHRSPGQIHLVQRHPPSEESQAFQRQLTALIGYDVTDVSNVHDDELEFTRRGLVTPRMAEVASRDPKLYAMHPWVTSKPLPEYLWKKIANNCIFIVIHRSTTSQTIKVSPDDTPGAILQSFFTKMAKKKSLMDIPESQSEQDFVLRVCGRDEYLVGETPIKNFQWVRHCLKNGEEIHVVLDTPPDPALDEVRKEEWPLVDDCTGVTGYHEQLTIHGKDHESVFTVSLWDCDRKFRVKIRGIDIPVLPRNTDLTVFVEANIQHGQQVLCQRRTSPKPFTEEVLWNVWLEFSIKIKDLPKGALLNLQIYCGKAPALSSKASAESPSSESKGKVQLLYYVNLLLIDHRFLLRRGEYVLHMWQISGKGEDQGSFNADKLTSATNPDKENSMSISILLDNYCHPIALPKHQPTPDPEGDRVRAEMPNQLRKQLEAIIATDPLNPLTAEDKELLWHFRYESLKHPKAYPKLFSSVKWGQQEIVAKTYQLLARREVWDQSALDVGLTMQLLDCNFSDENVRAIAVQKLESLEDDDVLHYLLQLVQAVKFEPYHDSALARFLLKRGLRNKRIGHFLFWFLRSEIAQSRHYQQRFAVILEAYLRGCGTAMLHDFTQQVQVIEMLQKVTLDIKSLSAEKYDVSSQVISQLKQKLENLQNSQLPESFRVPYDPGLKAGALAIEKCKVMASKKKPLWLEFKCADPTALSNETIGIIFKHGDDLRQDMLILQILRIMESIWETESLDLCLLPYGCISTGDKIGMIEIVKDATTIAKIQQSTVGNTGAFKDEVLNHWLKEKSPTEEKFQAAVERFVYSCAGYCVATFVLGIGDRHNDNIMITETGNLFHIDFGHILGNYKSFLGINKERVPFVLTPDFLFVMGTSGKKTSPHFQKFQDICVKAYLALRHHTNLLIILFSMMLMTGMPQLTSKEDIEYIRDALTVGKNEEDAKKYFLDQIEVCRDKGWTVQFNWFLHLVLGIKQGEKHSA
Kind of test: Fluorescence polarization assay for PI3K. Format: biochemical. Conditions: PI3 Kinase γ; read-out: PI3 Kinase γ IC50. Put shortly:
as §1
For orientation: Polarisation of emitted light reports the rotation of a fluorescent probe.

The subject of test [4] is prostate line LNCap. Kind of test: In vitro cell culture growth assay (MTS), LNCap. Type of test: cell-based. As to conditions: Homo sapiens, LNCaP, 72 h, LNCap cells, three days after drug treatment. The gist of the method: (§2)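 Viable cell density is assessed three days after inhibitor addition via MTS conversion, normalised to vehicle-treated cells.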
The subject of test [5] is breast line MDA468. Kind of test: In vitro cell culture growth assay (MTS), MDA468. As to conditions: Homo sapiens, 72 h, MDA468 cells, three days after drug treatment. Format: cell-based. Put shortly:
as §2

T2 sequence (P42336 whole entry, canonical isoform): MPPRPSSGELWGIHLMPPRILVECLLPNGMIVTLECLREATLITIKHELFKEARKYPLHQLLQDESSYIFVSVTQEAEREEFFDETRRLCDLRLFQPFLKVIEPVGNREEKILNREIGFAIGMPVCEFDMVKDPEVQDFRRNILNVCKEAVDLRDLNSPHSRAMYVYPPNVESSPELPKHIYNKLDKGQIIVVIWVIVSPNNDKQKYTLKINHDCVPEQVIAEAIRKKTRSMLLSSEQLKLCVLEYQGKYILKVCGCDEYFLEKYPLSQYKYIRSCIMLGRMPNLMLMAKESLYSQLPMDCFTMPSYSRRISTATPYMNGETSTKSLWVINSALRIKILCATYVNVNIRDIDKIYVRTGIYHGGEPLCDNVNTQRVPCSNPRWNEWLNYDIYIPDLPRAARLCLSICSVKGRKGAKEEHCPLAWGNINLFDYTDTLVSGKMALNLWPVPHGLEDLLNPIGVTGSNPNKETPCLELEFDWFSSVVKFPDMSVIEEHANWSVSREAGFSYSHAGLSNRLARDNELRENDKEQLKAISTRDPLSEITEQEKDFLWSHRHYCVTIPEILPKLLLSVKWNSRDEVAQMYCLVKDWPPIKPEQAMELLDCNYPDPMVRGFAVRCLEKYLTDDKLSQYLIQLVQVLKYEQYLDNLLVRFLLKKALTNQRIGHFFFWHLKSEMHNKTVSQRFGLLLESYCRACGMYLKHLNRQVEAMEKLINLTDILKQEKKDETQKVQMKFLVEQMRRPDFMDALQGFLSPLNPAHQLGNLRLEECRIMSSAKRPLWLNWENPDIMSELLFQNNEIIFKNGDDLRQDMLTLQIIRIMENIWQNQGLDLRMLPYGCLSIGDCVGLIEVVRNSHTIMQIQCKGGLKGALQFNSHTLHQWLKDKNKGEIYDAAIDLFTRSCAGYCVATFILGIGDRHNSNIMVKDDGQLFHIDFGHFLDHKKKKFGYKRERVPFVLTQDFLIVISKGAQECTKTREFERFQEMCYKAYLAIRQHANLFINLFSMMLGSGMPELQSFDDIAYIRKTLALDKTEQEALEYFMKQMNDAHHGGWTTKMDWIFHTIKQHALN

As usually defined, the IC50 is the concentration needed to halve the response being measured. As for `CCOC(=O)N1CCC(n2ncc3c(N4CC5CCC(C4)O5)nc(-c4ccc(NC(=O)NC5CCNCC5)cc4)nc32)CC1` [Example 103, ethyl 4-[4-(8-oxa-3-azabicyclo[3.2.1]oct-3-yl)-6-{4-[(piperidin-4-ylcarbamoyl)amino]phenyl}-1H-pyrazolo[3,4-d]pyrimidin-1-yl]piperidine-1-carboxylate], the IC50 was determined as 6.8 nM in test [1]; 874 nM in test [2]; 1100 nM in test [3]; 5000 nM in test [4]; 11000 nM in test [5].

Consider `CNC(=O)Nc1ccc(-c2nc(N3CC4CCC(C3)O4)c3cnn(C4CCC(=O)CC4)c3n2)cc1` [Example 106, 1-(4-(4-(8-oxa-3-azabicyclo[3.2.1]octan-3-yl)-1-(4-oxocyclohexyl)-1H-pyrazolo[3,4-d]pyrimidin-6-yl)phenyl)-3-methylurea], for which the half-inhibitory concentration (IC50) in test [1] was 0.22 nM; in test [2], 1300 nM; in test [3], above 10000 nM; in test [4] it was 32 nM; in test [5], 110 nM.

Take `CNC(=O)Nc1ccc(-c2nc(N3CC4CCC(C3)O4)c3cnn(C4CCC(O)CC4)c3n2)cc1` (centres unmarked) [Example 107, 1-(4-(4-(8-oxa-3-azabicyclo[3.2.1]octan-3-yl)-1-(4-hydroxycyclohexyl)-1H-pyrazolo[3,4-d]pyrimidin-6-yl)phenyl)-3-methylurea]: the IC50 was 0.24 nM in test [1]; 1310 nM in test [2]; 5000 nM in test [3]; 48 nM in test [4]; 190 nM in test [5].

With `CCOC(=O)Nc1ccc(-c2nc(N3CC4CCC(C3)O4)c3cnn(C4CCN(C(=O)OC)CC4)c3n2)cc1` [Example 111, methyl 4-[6-{4-[(ethoxycarbonyl)amino]phenyl}-4-(8-oxa-3-azabicyclo[3.2.1]oct-3-yl)-1H-pyrazolo[3,4-d]pyrimidin-1-yl]piperidine-1-carboxylate], the half-inhibitory concentration (IC50) in test [1] came out at 8.5 nM; in test [2], 3340 nM; in test [3], 12000 nM; in test [4], 700 nM; in test [5], 6000 nM.

For `COC(=O)N1CCC(n2ncc3c(N4CC5CCC(C4)O5)nc(-c4ccc(NC(=O)OCCO)cc4)nc32)CC1` [Example 112, methyl 4-[6-(4-{[(2-hydroxyethoxy)carbonyl]amino}phenyl)-4-(8-oxa-3-azabicyclo[3.2.1]oct-3-yl)-1H-pyrazolo[3,4-d]pyrimidin-1-yl]piperidine-1-carboxylate], the IC50 in test [1] is 0.75 nM; in test [2], 1260 nM; in test [3] it was above 10000 nM; in test [4], 40 nM; in test [5], 1050 nM.

Regarding `COCCOC(=O)Nc1ccc(-c2nc(N3CC4CCC(C3)O4)c3cnn(C4CCN(C(=O)OC)CC4)c3n2)cc1` [Example 113, methyl 4-[6-(4-{[(2-methoxyethoxy)carbonyl]amino}phenyl)-4-(8-oxa-3-azabicyclo[3.2.1]oct-3-yl)-1H-pyrazolo[3,4-d]pyrimidin-1-yl]piperidine-1-carboxylate], the half-maximal inhibitory concentration (IC50) in test [1] is 225 nM; in test [2], 7510 nM; in test [3] it was above 10000 nM; in test [4], 2700 nM; in test [5], 30000 nM.

With `COC(=O)N1CCC(n2ncc3c(N4CC5CCC(C4)O5)nc(-c4ccc(NC(=O)OCCN)cc4)nc32)CC1` [Example 114, methyl 4-[6-(4-{[(2-aminoethoxy)carbonyl]amino}phenyl)-4-(8-oxa-3-azabicyclo[3.2.1]oct-3-yl)-1H-pyrazolo[3,4-d]pyrimidin-1-yl]piperidine-1-carboxylate], the IC50 is 36.5 nM in test [1]; 1430 nM in test [2]; 7480 nM in test [3]; 4000 nM in test [4]; 6000 nM in test [5].

With `COC(=O)N1CCC(n2ncc3c(N4CC5CCC(C4)O5)nc(-c4ccc(NC(=O)OCCN(C)C)cc4)nc32)CC1` [Example 115, methyl 4-{6-[4-({[2-(dimethylamino)ethoxy]carbonyl}amino)phenyl]-4-(8-oxa-3-azabicyclo[3.2.1]oct-3-yl)-1H-pyrazolo[3,4-d]pyrimidin-1-yl}piperidine-1-carboxylate], the IC50 stood at 360 nM in test [1]; 5060 nM in test [2]; 8930 nM in test [3]; 1600 nM in test [4]; 4600 nM in test [5].

In the case of `COC(=O)N1CCC(n2ncc3c(N4CC5CCC(C4)O5)nc(-c4ccc(NC(=O)OCCN5CCCC5)cc4)nc32)CC1` [Example 116, methyl 4-[4-(8-oxa-3-azabicyclo[3.2.1]oct-3-yl)-6-(4-{[(2-pyrrolidin-1-ylethoxy)carbonyl]amino}phenyl)-1H-pyrazolo[3,4-d]pyrimidin-1-yl]piperidine-1-carboxylate], the 50% inhibitory concentration (IC50) in test [1] was determined as 335 nM; in test [2] it was 2660 nM; in test [3], 6740 nM; in test [4] it was 1700 nM; in test [5], 4000 nM.

With `COC(=O)N1CCC(n2ncc3c(N4CC5CCC(C4)O5)nc(-c4ccc(NC(=O)OCCN5CCOCC5)cc4)nc32)CC1` [Example 117, methyl 4-[6-(4-{[(2-morpholin-4-ylethoxy)carbonyl]amino}phenyl)-4-(8-oxa-3-azabicyclo[3.2.1]oct-3-yl)-1H-pyrazolo[3,4-d]pyrimidin-1-yl]piperidine-1-carboxylate], the IC50 in test [1] was above 800 nM; in test [2] it was above 10000 nM; in test [3] it was above 10000 nM; in test [4] it was 4400 nM; in test [5], 22000 nM.

In the case of `COC(=O)N1CCC(n2ncc3c(N4CC5CCC(C4)O5)nc(-c4ccc(NC(=O)OCCN5CCN(C)CC5)cc4)nc32)CC1` [Example 118, methyl 4-{6-[4-({[2-(4-methylpiperazin-1-yl)ethoxy]carbonyl}amino)phenyl]-4-(8-oxa-3-azabicyclo[3.2.1]oct-3-yl)-1H-pyrazolo[3,4-d]pyrimidin-1-yl}piperidine-1-carboxylate], the IC50 in test [1] was above 800 nM; in test [2], 8040 nM; in test [3], above 10000 nM; in test [4] it was 2800 nM; in test [5], 4700 nM.

Take `COC(=O)Nc1ccc(-c2nc(N3CC4CCC(C3)O4)c3cnn(C4CCN(C(=O)OC)CC4)c3n2)cc1` [Example 119, methyl 4-[6-{4-[(methoxycarbonyl)amino]phenyl}-4-(8-oxa-3-azabicyclo[3.2.1]oct-3-yl)-1H-pyrazolo[3,4-d]pyrimidin-1-yl]piperidine-1-carboxylate]: the IC50 in test [1] was 3.6 nM; in test [2], 4670 nM; in test [3], above 10000 nM; in test [4], 180 nM; in test [5] it was 1200 nM.

`COC(=O)N1CCC(n2ncc3c(N4CC5CCC(C4)O5)nc(-c4ccc(N)cc4)nc32)CC1` [Example 120, methyl 4-[6-(4-aminophenyl)-4-(8-oxa-3-azabicyclo[3.2.1]oct-3-yl)-1H-pyrazolo[3,4-d]pyrimidin-1-yl]piperidine-1-carboxylate]: the IC50 is 69 nM in test [1]; 7920 nM in test [2]; above 10000 nM in test [3]; 950 nM in test [4]; 6900 nM in test [5].
